Measurements reported in ChEMBL document CHEMBL1139402, “Design and SAR of new substituted purines bearing aryl groups at N9 position as HIV-1 Tat-TAR interaction inhibitors” (Bioorg Med Chem, 2008).

System: Human immunodeficiency virus 1
Assay: Inhibition of HIV1 Tat-TAR interaction-mediated transactivation in human 293T cells assessed as CAT gene expression at 30 uM after 24 hrs by ELISA
Type: functional
Settings: Human immunodeficiency virus 1, HEK-293T

Row | Compound | inhibition at 30 µM
1 | CCN(CC)c1nc(C)c2nc(SCC(=O)NCCCNC(=N)N)n(CCCN3CCOCC3)c2n1 | 48.2%
2 | CCN(CC)c1nc(C)c2nc(SCC(=O)NCCCN)n(CCNc3ncnc4[nH]cnc34)c2n1 | 52.3%
3 | CCN(CC)c1nc(C)c2nc(SCC(=O)NCCNC(=N)N)n(CCNc3ncnc4[nH]cnc34)c2n1 | 48.2%
4 | CCN(CC)c1nc(C)c2nc(SCC(=O)NCCN)n(CCCn3cncn3)c2n1 | 48.2%
5 | CCN(CC)c1nc(C)c2nc(SCC(=O)NCCCNC(=N)N)n(CCNc3ncnc4[nH]cnc34)c2n1 | 58.6%
6 | CCN(CC)c1nc(C)c2nc(SCC(=O)NCCNC(=N)N)n(CCCN3CCOCC3)c2n1 | 81.8%
7 | CCN(CC)c1nc(C)c2nc(SCC(=O)NCCNC(=N)N)n(CCCn3cncn3)c2n1 | 48.2%
8 | CCN(CC)c1nc(C)c2nc(SCC(=O)NCCN)n(CCCN3CCOCC3)c2n1 | 80.4%
9 | CCN(CC)c1nc(C)c2nc(SCC(=O)NCCCN)n(CCCN3CCOCC3)c2n1 | 83%
10 | CCN(CC)c1nc(C)c2nc(SCC(=O)NCCN)n(CCNc3ncnc4[nH]cnc34)c2n1 | 48.2%

System: not listed separately
Assay: Selectivity index, ratio of TC50 for human CEM cells to EC50 for SIV-induced syncytium
Set-up: species or system CCRF-CEM
Settings: not given

Row | Compound | Ratio
11 | CCN(CC)c1nc(C)c2nc(SCC(=O)NCCCNC(=N)N)n(CCCN3CCOCC3)c2n1 | >8.9
12 | CCN(CC)c1nc(C)c2nc(SCC(=O)NCCCN)n(CCc3c[nH]c4ccccc34)c2n1 | 2.4
13 | CCN(CC)c1nc(C)c2nc(SCC(=O)NCCN)n(CCNc3nc(N)nc4[nH]cnc34)c2n1 | >5
14 | CCN(CC)c1nc(C)c2nc(SCC(=O)NCCCN)n(CCCn3cncn3)c2n1 | 3.6
15 | CCN(CC)c1nc(C)c2nc(SCC(=O)NCCCNC(=N)N)n(CCn3cncn3)c2n1 | >14.1
16 | CCN(CC)c1nc(C)c2nc(SCC(=O)NCCCN)n(CCNc3ncnc4[nH]cnc34)c2n1 | >18.2
17 | CCN(CC)c1nc(C)c2nc(SCC(=O)NCCNC(=N)N)n(CCNc3ncnc4[nH]cnc34)c2n1 | 11.9
18 | CCN(CC)c1nc(C)c2nc(SCC(=O)NCCCNC(=N)N)n(CCc3c[nH]c4ccccc34)c2n1 | 5.2
19 | CCN(CC)c1nc(C)c2nc(SCC(=O)NCCN)n(CCCn3cncn3)c2n1 | >14.5
20 | CCN(CC)c1nc(C)c2nc(SCC(=O)NCCCNC(=N)N)n(CCNc3ncnc4[nH]cnc34)c2n1 | >7.7
21 | CCN(CC)c1nc(C)c2nc(SCC(=O)NCCNC(=N)N)n(CCCN3CCOCC3)c2n1 | >5.3
22 | CCN(CC)c1nc(C)c2nc(SCC(=O)NCCCN)n(CCn3cncn3)c2n1 | >8.7
23 | CCN(CC)c1nc(C)c2nc(SCC(=O)NCCNC(=N)N)n(CCc3c[nH]c4ccccc34)c2n1 | 3.7
24 | CCN(CC)c1nc(C)c2nc(SCC(=O)NCCNC(=N)N)n(CCCn3cncn3)c2n1 | >18.5
25 | CCN(CC)c1nc(C)c2nc(SCC(=O)NCCCN)n(CCNc3nc(N)nc4[nH]cnc34)c2n1 | >15.4
26 | CCN(CC)c1nc(C)c2nc(SCC(=O)NCCN)n(CCn3cncn3)c2n1 | >7.2
27 | CCN(CC)c1nc(C)c2nc(SCC(=O)NCCN)n(CCCN3CCOCC3)c2n1 | 5.2
28 | CCN(CC)c1nc(C)c2nc(SCC(=O)NCCCN)n(CCCN3CCOCC3)c2n1 | 7.4
29 | CCN(CC)c1nc(C)c2nc(SCC(=O)NCCN)n(CCNc3ncnc4[nH]cnc34)c2n1 | >40
30 | CCN(CC)c1nc(C)c2nc(SCC(=O)NCCNC(=N)N)n(CCn3cncn3)c2n1 | >8.1
31 | CCN(CC)c1nc(C)c2nc(SCC(=O)NCCN)n(CCc3c[nH]c4ccccc34)c2n1 | 4.1
32 | CCN(CC)c1nc(C)c2nc(SCC(=O)NCCCNC(=N)N)n(CCNc3nc(N)nc4[nH]cnc34)c2n1 | >12
33 | CCN(CC)c1nc(C)c2nc(SCC(=O)NCCNC(=N)N)n(CCNc3nc(N)nc4[nH]cnc34)c2n1 | >16.4
34 | CCN(CC)c1nc(C)c2nc(SCC(=O)NCCCNC(=N)N)n(CCCn3cncn3)c2n1 | >17.2

System: not listed separately
Assay: Cytotoxicity against human CEM cells assessed as inhibition of uninfected cells proliferation
Type: cell-based
Settings: CEM (CCRF-CEM) cells, read-out: TC50 (the source's name)

Row | Compound | CC50
35 | CCN(CC)c1nc(C)c2nc(SCC(=O)NCCCNC(=N)N)n(CCCN3CCOCC3)c2n1 | > 100 µM
36 | CCN(CC)c1nc(C)c2nc(SCC(=O)NCCCN)n(CCc3c[nH]c4ccccc34)c2n1 | 10.2 µM
37 | CCN(CC)c1nc(C)c2nc(SCC(=O)NCCN)n(CCNc3nc(N)nc4[nH]cnc34)c2n1 | > 100 µM
38 | CCN(CC)c1nc(C)c2nc(SCC(=O)NCCCN)n(CCCn3cncn3)c2n1 | 31.7 µM
39 | CCN(CC)c1nc(C)c2nc(SCC(=O)NCCCNC(=N)N)n(CCn3cncn3)c2n1 | > 100 µM
40 | CCN(CC)c1nc(C)c2nc(SCC(=O)NCCCN)n(CCNc3ncnc4[nH]cnc34)c2n1 | > 100 µM
41 | CCN(CC)c1nc(C)c2nc(SCC(=O)NCCNC(=N)N)n(CCNc3ncnc4[nH]cnc34)c2n1 | 92.7 µM
42 | CCN(CC)c1nc(C)c2nc(SCC(=O)NCCCNC(=N)N)n(CCc3c[nH]c4ccccc34)c2n1 | 29.1 µM
43 | CCN(CC)c1nc(C)c2nc(SCC(=O)NCCN)n(CCCn3cncn3)c2n1 | > 100 µM
44 | CCN(CC)c1nc(C)c2nc(SCC(=O)NCCCNC(=N)N)n(CCNc3ncnc4[nH]cnc34)c2n1 | > 100 µM
45 | CCN(CC)c1nc(C)c2nc(SCC(=O)NCCNC(=N)N)n(CCCN3CCOCC3)c2n1 | > 100 µM
46 | CCN(CC)c1nc(C)c2nc(SCC(=O)NCCCN)n(CCn3cncn3)c2n1 | > 100 µM
47 | CCN(CC)c1nc(C)c2nc(SCC(=O)NCCNC(=N)N)n(CCc3c[nH]c4ccccc34)c2n1 | 29.5 µM
48 | CCN(CC)c1nc(C)c2nc(SCC(=O)NCCNC(=N)N)n(CCCn3cncn3)c2n1 | > 100 µM
49 | CCN(CC)c1nc(C)c2nc(SCC(=O)NCCCN)n(CCNc3nc(N)nc4[nH]cnc34)c2n1 | > 100 µM
50 | CCN(CC)c1nc(C)c2nc(SCC(=O)NCCN)n(CCn3cncn3)c2n1 | > 100 µM
51 | CCN(CC)c1nc(C)c2nc(SCC(=O)NCCN)n(CCCN3CCOCC3)c2n1 | 64.8 µM
52 | CCN(CC)c1nc(C)c2nc(SCC(=O)NCCCN)n(CCCN3CCOCC3)c2n1 | 87.5 µM
53 | CCN(CC)c1nc(C)c2nc(SCC(=O)NCCN)n(CCNc3ncnc4[nH]cnc34)c2n1 | > 100 µM
54 | CCN(CC)c1nc(C)c2nc(SCC(=O)NCCNC(=N)N)n(CCn3cncn3)c2n1 | > 100 µM
55 | CCN(CC)c1nc(C)c2nc(SCC(=O)NCCN)n(CCc3c[nH]c4ccccc34)c2n1 | 6.5 µM
56 | CCN(CC)c1nc(C)c2nc(SCC(=O)NCCCNC(=N)N)n(CCNc3nc(N)nc4[nH]cnc34)c2n1 | > 100 µM
57 | CCN(CC)c1nc(C)c2nc(SCC(=O)NCCNC(=N)N)n(CCNc3nc(N)nc4[nH]cnc34)c2n1 | > 100 µM
58 | CCN(CC)c1nc(C)c2nc(SCC(=O)NCCCNC(=N)N)n(CCCn3cncn3)c2n1 | > 100 µM

System: Simian immunodeficiency virus
Assay: Antiviral activity against SIV-induced syncytium in human CEM cells assessed as inhibition of virus-induced cytopathogenicity after 5 days
Type: functional, organism-based
Settings: CCRF-CEM, 120 h

Row | EC50 | Compound
59 | 4.2 µM | CCN(CC)c1nc(C)c2nc(SCC(=O)NCCCN)n(CCc3c[nH]c4ccccc34)c2n1
60 | 7.1 µM | CCN(CC)c1nc(C)c2nc(SCC(=O)NCCCNC(=N)N)n(CCn3cncn3)c2n1
61 | 5.6 µM | CCN(CC)c1nc(C)c2nc(SCC(=O)NCCCNC(=N)N)n(CCc3c[nH]c4ccccc34)c2n1
62 | 13 µM | CCN(CC)c1nc(C)c2nc(SCC(=O)NCCCNC(=N)N)n(CCNc3ncnc4[nH]cnc34)c2n1
63 | 7.9 µM | CCN(CC)c1nc(C)c2nc(SCC(=O)NCCNC(=N)N)n(CCc3c[nH]c4ccccc34)c2n1
64 | 5.4 µM | CCN(CC)c1nc(C)c2nc(SCC(=O)NCCNC(=N)N)n(CCCn3cncn3)c2n1
65 | 12.4 µM | CCN(CC)c1nc(C)c2nc(SCC(=O)NCCNC(=N)N)n(CCn3cncn3)c2n1
66 | 1.6 µM | CCN(CC)c1nc(C)c2nc(SCC(=O)NCCN)n(CCc3c[nH]c4ccccc34)c2n1
67 | 8.3 µM | CCN(CC)c1nc(C)c2nc(SCC(=O)NCCCNC(=N)N)n(CCNc3nc(N)nc4[nH]cnc34)c2n1
68 | 5.8 µM | CCN(CC)c1nc(C)c2nc(SCC(=O)NCCCNC(=N)N)n(CCCn3cncn3)c2n1

Continued, compound first:

Row | Compound | EC50
69 | CCN(CC)c1nc(C)c2nc(SCC(=O)NCCCNC(=N)N)n(CCCN3CCOCC3)c2n1 | 11.2 µM
70 | CCN(CC)c1nc(C)c2nc(SCC(=O)NCCN)n(CCNc3nc(N)nc4[nH]cnc34)c2n1 | 20 µM
71 | CCN(CC)c1nc(C)c2nc(SCC(=O)NCCCN)n(CCCn3cncn3)c2n1 | 8.9 µM
72 | CCN(CC)c1nc(C)c2nc(SCC(=O)NCCCN)n(CCNc3ncnc4[nH]cnc34)c2n1 | 5.5 µM
73 | CCN(CC)c1nc(C)c2nc(SCC(=O)NCCNC(=N)N)n(CCNc3ncnc4[nH]cnc34)c2n1 | 7.8 µM
74 | CCN(CC)c1nc(C)c2nc(SCC(=O)NCCN)n(CCCn3cncn3)c2n1 | 6.9 µM
75 | CCN(CC)c1nc(C)c2nc(SCC(=O)NCCNC(=N)N)n(CCCN3CCOCC3)c2n1 | 18.9 µM
76 | CCN(CC)c1nc(C)c2nc(SCC(=O)NCCCN)n(CCn3cncn3)c2n1 | 11.5 µM
77 | CCN(CC)c1nc(C)c2nc(SCC(=O)NCCCN)n(CCNc3nc(N)nc4[nH]cnc34)c2n1 | 6.5 µM
78 | CCN(CC)c1nc(C)c2nc(SCC(=O)NCCN)n(CCn3cncn3)c2n1 | 13.8 µM
79 | CCN(CC)c1nc(C)c2nc(SCC(=O)NCCN)n(CCCN3CCOCC3)c2n1 | 12.4 µM
80 | CCN(CC)c1nc(C)c2nc(SCC(=O)NCCCN)n(CCCN3CCOCC3)c2n1 | 11.8 µM
81 | CCN(CC)c1nc(C)c2nc(SCC(=O)NCCN)n(CCNc3ncnc4[nH]cnc34)c2n1 | 2.5 µM
82 | CCN(CC)c1nc(C)c2nc(SCC(=O)NCCNC(=N)N)n(CCNc3nc(N)nc4[nH]cnc34)c2n1 | 6.1 µM
